{
  "source": "patent US10168338B2",
  "about": "“Methods of identifying modulators of sestrin-gator-2 interaction for modulating mTORC1 activity” (Whitehead Institute for Biomedical Research, priority 2014, dated 2019)",
  "key": {"Sestrin3": {"molecular_target": "T1, Sestrin3 (Homo sapiens, UniProt P58005)", "T1 construct": "expressed in transfected cells; host or cells: HEK-293T, transient transfection of a pRK5-based cDNA plasmid, anti-FLAG immunoprecipitation", "T1 sequence (P58005 1-492)": "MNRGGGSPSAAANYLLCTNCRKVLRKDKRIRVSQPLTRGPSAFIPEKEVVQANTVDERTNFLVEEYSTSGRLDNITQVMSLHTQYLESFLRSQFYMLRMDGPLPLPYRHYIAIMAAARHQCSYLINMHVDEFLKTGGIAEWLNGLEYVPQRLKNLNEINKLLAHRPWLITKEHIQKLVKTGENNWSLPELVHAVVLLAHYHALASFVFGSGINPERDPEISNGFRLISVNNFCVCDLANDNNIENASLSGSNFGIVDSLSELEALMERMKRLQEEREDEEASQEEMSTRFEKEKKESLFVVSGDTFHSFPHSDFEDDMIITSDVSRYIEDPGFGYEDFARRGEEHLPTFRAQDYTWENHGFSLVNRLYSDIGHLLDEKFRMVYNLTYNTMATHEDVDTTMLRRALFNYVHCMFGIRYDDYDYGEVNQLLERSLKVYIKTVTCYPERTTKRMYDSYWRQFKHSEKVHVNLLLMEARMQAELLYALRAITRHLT", "assay": "[3H]-leucine binding to FLAG-Sestrin3 immunoprecipitated from HEK-293T cells", "conditions": "FLAG-tagged protein from HEK-293T", "method": "Four million HEK-293T cells were plated in a 15 cm plate four days prior to the experiment. Each plate yielded the protein for one sample. Forty-eight hours after plating, the cells were transfected via the polyethylenimine method (O. Boussif et al., PNAS (USA), 92:7297-7301 (1995)) with the pRK5-based cDNA expression plasmids indicated in the figures in the following amounts: 5 μgFLAG-Sestrin2; 12 μg of the negative control Rap2A; 5 μg WDR24; 2 μg WDR24 with 4 μg each of HA-Seh1L, HA-Sec13, HA-Mios, and HA-WDR59; 12 […] (CG11299-PD); 12 μgFLAG-Sestrin1.1; 12 μg FLAG-Sestrin1.2; 12 μg FLAG-Sestrin3; 12 μg FLAG-Sestrin2 mutants (L261A, E451A, S190A) and up to 20 μg total DNA with empty-PRK5. Forty-eight hours after transfection cells were lysed as described in Example 1. […]\nFor the binding assays, two tubes at a time were washed as previously indicated for immunoprecipitations. […] With a cut tip, each sample was mixed well and three 10 μl aliquots were separately quantified using a TriCarb® scintillation counter (PerkinElmer). This process was repeated in pairs for each sample, to ensure similar incubation and wash times for all samples analyzed across different experiments."}, "[1]": {"molecular_target": "T2, GATOR2-Sestrin2 interaction (Homo sapiens, UniProt P58004)", "T2 construct": "To isolate the FLAG-WDR24/endogenous-Sestrin2 complex; endogenous in cells; host or cells: HEK-293T cells stably expressing FLAG-WDR24; Sestrin2 and the other GATOR2 subunits are endogenous", "T2 sequence (P58004 1-480)": "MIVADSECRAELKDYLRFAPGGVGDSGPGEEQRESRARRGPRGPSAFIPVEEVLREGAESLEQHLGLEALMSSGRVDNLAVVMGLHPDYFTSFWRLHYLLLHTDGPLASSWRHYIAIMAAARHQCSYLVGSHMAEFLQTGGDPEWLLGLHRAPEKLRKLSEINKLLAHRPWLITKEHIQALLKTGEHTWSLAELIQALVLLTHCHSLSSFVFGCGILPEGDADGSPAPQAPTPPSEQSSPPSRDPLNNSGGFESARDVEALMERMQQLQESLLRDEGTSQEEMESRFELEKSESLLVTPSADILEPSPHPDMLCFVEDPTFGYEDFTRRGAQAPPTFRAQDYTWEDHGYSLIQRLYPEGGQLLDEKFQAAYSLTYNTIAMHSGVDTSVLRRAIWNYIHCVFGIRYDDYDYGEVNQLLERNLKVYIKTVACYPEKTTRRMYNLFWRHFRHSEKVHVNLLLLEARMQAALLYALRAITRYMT", "assay": "Sestrin2-GATOR2 interaction in HEK-293T cells after starvation/restimulation (co-immunoprecipitation)", "type": "cell-based", "method": "In order to determine the effect of amino acids on the GATOR2-Sestrin interaction, transfected cells were incubated in amino acid free RPMI for 50 minutes and then stimulated with amino acids for 10 minutes. For glucose starvation, cells were incubated in RPMI media lacking glucose but containing amino acids and dialyzed serum for 50 minutes, followed by a 10 minute restimulation with 5 mM D-Glucose. For insulin deprivation, cells were incubated in RPMI without serum for 50 minutes and restimulated with 1 μg/ml insulin for 10 minutes. Finally, when Torin1 or Rapamycin was used, cells were incubated with 250 nM of each throughout the starvation and restimulation period.\nHEK-293T cells stably expressing FLAG-WDR24 or the control protein FLAG-metap2 (as described in Example 1) were starved for leucine, arginine, or all amino acids for 50 minutes. In some samples, cells were re-stimulated with leucine, arginine, or all amino acids for 10 minutes and then FLAG immunoprecipitates prepared from cell lysates. Immunoprecipitates and lysates were analyzed by immunoblotting for indicated proteins. Removal of either leucine or arginine from the cell media inhibited mTORC1 signaling, as indicated by S6K1 phosphorylation, to similar extents. Strikingly, however, only leucine starvation caused Sestrin2 to bind to GATOR2 inducing the interaction as effectively as complete amino acid starvation (FIG. 9A). […] Leucine starvation and stimulation also strongly regulated the interaction of endogenous Sestrin1, but not endogenous Sestrin3, with GATOR2 (Figure not shown)."}},
  "data": [
    {"smiles": "CC(C)C[C@H](N)C(=O)O", "note": "[leucine]", "values": [
      {"measurement": "binding of leucine to Sestrin3", "setting": "Sestrin3", "result": "only slightly above background"},
      {"measurement": "EC50", "setting": "[1]; HEK-293T starved of leucine 50 minutes, restimulated 10 minutes, read-out: half-maximal effect on the Sestrin2-GATOR2 interaction in cells", "result": "20 to 40", "unit": "µM"},
      {"measurement": "effect of re-addition on Sestrin2 binding to GATOR2 in cells", "setting": "[1]; starved 50 minutes, re-stimulated 10 minutes", "result": "rapidly reversed the binding"}
    ]}
  ]
}
